From US10604481B2, “(Thio, oxo and seleno) semicarbazone complexes with zinc and their use for treating cancer” (RUTGERS, THE STATE UNIVERSITY OF NEW JERSEY, priority 2015, dated 2020)

Columns and labels:
[1] = Mouse survival, daily IP administration (Example 13); assay type: in vivo; details: mice, ZN1 5.6 mg/kg vs ZMC1 5 mg/kg IP daily, FIG. 5
[2] = test system: HEK293 (non-cancer, p53-WT) cells; assay: Intracellular [Zn2+]free imaging with FluoZin-3-AM, HEK293; assay type: cell-based; details: for increase of intracellular [Zn2+]free (FZ3 fluorescence): HEK293, complete media
Procedure: To minimize the potential for Zn^2+ contamination and contributions from poorly defined elements in complete media (e.g. FBS), cells were treated and imaged in Ca^2+ and Mg^2+-free Earle's Balanced Salt Solution supplemented with 10 mM HEPES pH 7.4 (EBSS/H (−)Ca/Mg). Excess ZnCl2 with the Zn^2+ ionophore pyrithione (PYR) was used as a positive control. Excess membrane-permeable Zn^2+ chelator N,N,N′,N′-tetrakis(2-pyridylmethyl)ethane-1,2-diamine (TPEN) was used as a negative control.
To normalize for differential dye loading, cells were then sequentially treated with excess PYR/ZnCl2, imaged, treated with TPEN, and imaged again. PYR/ZnCl2 and TPEN served to saturate and apoize the intracellular FZ3, respectively.
TOV112D or HEK293 cells (40,000 cells/well) were plated on either 8-well BD Falcon chambered culture slides (Corning Life Sciences) or 8-chambered #1.5 Nunc Lab-Tek II chambered coverglasses (Thermo Scientific) treated with poly-L-lysine. After 48 h, cells were washed 2×5 m in serum-free media and incubated with 1 μM FZ3-AM for 40 m at 37° C. Cells were then washed 2×5 m in either EBSS/H (−)Ca/Mg or phenol-red free DMEM+10% FBS containing the indicated treatments for 20 m before imaging. For nuclear colocalization, 1 μg/mL Hoechst 33342 was also included. Cells were imaged using a Zeiss LSM510 META NLO confocal microscope equipped with 37° C. environmental control chamber. FZ3 and Hoechst 33342 were excited at 488 nm (argon laser) and 790 nm (Chameleon Ti:sapphire laser), respectively. To determine the kinetics of fluorescence change, each background-subtracted image in the time-lapse series was integrated in ImageJ and normalized to the integrated fluorescence of the first frame after treatment. For quantification of intracellular [Zn^2+]free, each cell was analyzed in the treated, 50 μM PYR/ZnCl2 (1:1), and 100 μM TPEN images by taking the mean fluorescence of an ROI inside the cell subtracted by an ROI immediately outside the cell measured in ImageJ. The [Zn^2+]free for each cell was then calculated by Eqn 2:
[formula] […] To minimize the effects of outliers the lowest and highest 5% of cells in each series were rejected, and the remaining values averaged to give the value from that experiment. The number of cells analyzed in each trial ranged from 54-163. For nuclear colocalization, treated, PYR/ZnCl2, and TPEN treated images costained with Hoechst 33342 were aligned and each pixel subjected to Eqn. 2 in MATLAB (MathWorks).

[3] = Liposome import assay (RhodZin-3 in DOPC liposomes); details: for transport of Zn2+ into liposomes (rate of RZ-3 fluorescence increase): external [Zn2+]free 10 μM
Procedure: Zn^2+ alone was unable to permeate the liposomal membrane as indicated by the lack of RZ-3 fluorescence increase.
It can function as an ionophore in conditions of the liposome experiments where external [Zn^2+]free was 10 μM. However, in complete media containing 10% fetal bovine serum (FBS), Zn^2+-binding proteins from the serum (e.g. albumin) necessarily compete for Zn^2+ with any putative MC, making the effective [Zn^2+]free much lower than [Zn^2+]total.
DOPC-liposomes were prepared by film rehydration and extrusion followed by gel filtration and diluted to an OD600=0.06 in buffer. The size distribution of the liposomes was determined by dynamic light scattering (DLS) using a Malvern Zetasizer Nano ZS. Fluorescence measurements were taken on a Horiba Fluoromax-4 spectrofluorimeter in a 5×5 mm quartz cuvette with λex/λem=550/572 nm for RZ-3 and 490/515 nm for calcein. Initial Zn^2+ import/export was quantified by fitting the first 10-30 s of data after each treatment to a line and converted to units of flux using the following Eqn 1:
[formula] where Ji is the initial flux, ΔF/Δt is the slope of the fit line, Fmax is RZ-3 fluorescence in the presence of saturating Zn^2+ and 1% TritonX-100, Fmin is RZ-3 fluorescence in the presence of excess EDTA and 1% TritonX-100, [RZ3] is the concentration of encapsulated RZ-3, and SA/Vol is the surface area to volume ratio calculated assuming hollow spheres of the mean diameter determined by DLS. Intracellular [Zn^2+]free Imaging

[4] = test system: H1299 (p53-null); assay: Three day cell growth inhibition assay, H1299; assay type: cell-based, human; details: FIG. 2
[5] = test system: H460 (p53-WT); assay: Three day cell growth inhibition assay, H460; assay type: cell-based, human; details: H460 (p53 wildtype), FIG. 2

Row | Compound | potency in vivo (survival) relative to monomer ZMC1 [1] | increase of intracellular [Zn2+]free (FZ3 fluorescence) [2] | transport of Zn2+ into liposomes (rate of RZ-3 fluorescence increase) [3] | t1/2 of intracellular [Zn2+]free increase ([2]; HEK293, ZMC1 and ZnCl2, EBSS/H (−)Ca/Mg, mean±SD, n=4) | cell growth inhibition (cell killing) [4] | Zn2+ export from liposomes (RZ-3 fluorescence) ([3]; excess EDTA outside the liposomes) | cell growth inhibition (cell killing) [5]
1 | [Zn(ZMC1)2] [Compound 12] | greater potency | – | – | – | – | – | –
2 | C/C(=N\NC(=O)N1CCC1)c1ccccn1 [Compound 10, (E)-N′-(1-(pyridin-2-yl)ethylidene)azetidine-1-carbohydrazide] | – | did not | shuttled Zn^2+ into the liposomes | – | – | – | –
3 | C/C(=N\NC(=S)N1CCC1)c1ccccn1 [Compound 6, (E)-N′-(1-(pyridin-2-yl)ethylidene)azetidine-1-carbothiohydrazide] | – | increased intracellular [Zn^2+]free | dose-dependent increase | 2.07 ± 0.333 min | undisturbed | time dependent decrease in RZ-3 fluorescence | undisturbed
4 | O=C(O)CN(CC(=O)O)CC(=O)O [NTA, reference compound] | – | did not | did not | – | – | – | –
